{"source": "patent US11339171B2", "about": "“MDM2 inhibitors” (Gan & Lee Pharmaceuticals, priority 2017, dated 2022)", "key": {"[1]": {"tested_on": "human osteosarcoma cell line SJSA-1", "experiment": "Inhibition of proliferation of human osteosarcoma cell line SJSA-1 (DAPI staining, In Cell Analyzer)", "conditions": "Homo sapiens, SJSA-1, 72 h, read-out: IC50 (nM), inhibitory activity on proliferation of human osteosarcoma cell line SJSA-1, SJSA-1, incubated 72 h"}, "[2]": {"target": "T1, MDM2 (Homo sapiens, UniProt Q00987)", "T1 construct": "made in house", "T1 sequence (Q00987 whole entry)": "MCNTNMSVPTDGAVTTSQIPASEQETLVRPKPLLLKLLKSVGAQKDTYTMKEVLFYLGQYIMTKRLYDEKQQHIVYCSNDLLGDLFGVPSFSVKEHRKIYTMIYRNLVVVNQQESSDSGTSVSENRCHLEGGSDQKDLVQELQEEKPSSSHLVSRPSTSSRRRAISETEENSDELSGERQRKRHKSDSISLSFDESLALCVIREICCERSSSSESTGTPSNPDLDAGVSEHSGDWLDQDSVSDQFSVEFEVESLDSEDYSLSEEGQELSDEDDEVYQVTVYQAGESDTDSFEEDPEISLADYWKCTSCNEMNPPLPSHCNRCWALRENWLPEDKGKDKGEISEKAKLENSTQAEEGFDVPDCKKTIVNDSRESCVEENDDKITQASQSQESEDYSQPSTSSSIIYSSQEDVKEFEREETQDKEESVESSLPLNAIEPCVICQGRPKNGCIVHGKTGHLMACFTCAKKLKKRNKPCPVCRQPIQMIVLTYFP", "experiment": "Inhibition test of MDM2-P53 (GST-MDM2, Biotin-P53, Anti-GST-Tb, SA-XL665)", "type": "binding", "procedure,_shortened": "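HTRF-type assay using 4 nM GST-MDM2 (final), Biotin-P53, SA-XL665 and anti-GST-Tb in PBS with 0.1% BSA, 5 mM DTT and 1 mM AEBSF. Compounds in 5-fold serial dilutions over twelve points; incubation 90 min at 25° C with shaking before plate-reader read-out.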"}}}
{"smiles": "COc1cc(OCCF)ncc1-c1nc2c(n1C(C)C)[C@]1(C(=O)Nc3cc(Cl)ccc31)N(c1cccc(Cl)c1)C2=O", "note": "[Example R-177, (R)-6-chloro-5′-(3-chlorophenyl)-2′-(6-(2-fluoroethoxy)-4-methoxypyridin-3-yl)-3′-isopropyl-3′H-spiro[dihydroindole-3,4′-pyrrolo[3,4-d]imidazole]-2,6′(5′H)-dione]", "values": [{"measurement": "IC50", "setting": "[1]", "result": 4250, "unit": "nM"}, {"measurement": "IC50", "setting": "[2]", "result": 109, "unit": "nM"}]}
{"smiles": "CCOc1ncc(-c2nc3c(n2C(C)C)[C@]2(C(=O)Nc4cc(Cl)ccc42)N(c2cc(F)cc(Cl)c2)C3=O)c(OC)n1", "note": "[Example R-180, (R)-6-chloro-5′-(3-chloro-5-fluorophenyl)-2′-(2-ethoxy-4-methoxypyrimidin-5-yl)-3′-isopropyl-3′H-spiro[dihydroindole-3,4′-pyrrolo[3,4-d]imidazole]-2,6′(5′H)-dione]", "values": [{"measurement": "IC50", "setting": "[1]", "result": 2170, "unit": "nM"}, {"measurement": "IC50", "setting": "[2]", "result": 679, "unit": "nM"}]}
{"smiles": "COc1ncc(-c2nc3c(n2C(C)C)[C@@]2(C(=O)Nc4cc(Cl)ccc42)N(c2ccc(F)c(Cl)c2)C3=O)c(OC)n1", "note": "[Example S-3, (S)-6-chloro-5′-(3-chloro-4-fluorophenyl)-2′-(2,4-dimethoxypyrimidin-5-yl)-3′-isopropyl-3′H-spiro[dihydroindole-3,4′-pyrrolo[3,4-d]imidazole]-2,6′(5′H)-dione]", "values": [{"measurement": "IC50", "setting": "[1]", "result": 174, "unit": "nM"}, {"measurement": "IC50", "setting": "[2]", "result": 4.92, "unit": "nM"}]}
{"smiles": "COc1cc(F)ccc1-c1nc2c(n1C(C)C)[C@@]1(C(=O)Nc3cc(Cl)ccc31)N(c1cc(Cl)ccc1C)C2=O", "note": "[Example S-4, (S)-6-chloro-5′-(5-chloro-2-methylphenyl)-2′-(4-fluoro-2-methoxyphenyl)-3′-isopropyl-3′H-spiro[dihydroindole-3,4′-pyrrolo[3,4-d]imidazole]-2,6′(5′H)-dione]", "values": [{"measurement": "IC50", "setting": "[1]", "result": 7.92, "unit": "nM"}, {"measurement": "IC50", "setting": "[2]", "result": 3.37, "unit": "nM"}]}
{"smiles": "COc1ccccc1-c1nc2c(n1C(C)C)[C@@]1(C(=O)Nc3cc(Cl)ccc31)N(c1cc(Cl)ccc1C)C2=O", "note": "[Example S-5, (S)-6-chloro-5′-(5-chloro-2-methylphenyl)-3′-isopropyl-2′-(2-methoxyphenyl)-3′H-spiro[dihydroindole-3,4′-pyrrolo[3,4-d]imidazole]-2,6′(5′H)-dione]", "values": [{"measurement": "IC50", "setting": "[1]", "result": 25.4, "unit": "nM"}, {"measurement": "IC50", "setting": "[2]", "result": 3.22, "unit": "nM"}]}
{"smiles": "CCc1ccccc1-c1nc2c(n1C(C)C)[C@@]1(C(=O)Nc3cc(Cl)ccc31)N(c1cc(Cl)ccc1C)C2=O", "note": "[Example S-7, (S)-6-chloro-5′-(5-chloro-2-methylphenyl)-2′-(2-ethylphenyl)-3′-isopropylisopropyl-3′H-spiro[dihydroindole-3,4′-pyrrolo[3,4-d]imidazole]-2,6′(5′H)-dione]", "values": [{"measurement": "IC50", "setting": "[1]", "result": 1270, "unit": "nM"}, {"measurement": "IC50", "setting": "[2]", "result": 73.2, "unit": "nM"}]}
{"smiles": "COc1ccc(-c2nc3c(n2C(C)C)[C@@]2(C(=O)Nc4cc(Cl)ccc42)N(c2cc(Cl)ccc2C)C3=O)c(OC)n1", "note": "[Example S-8, (S)-6-chloro-5′-(5-chloro-2-methylphenyl)-2′-(2,6-dimethoxypyridin-3-yl)-3′-isopropyl-3′H-spiro[dihydroindole-3,4′-pyrrolo[3,4-d]imidazole]-2,6′(5′H)-dione]", "values": [{"measurement": "IC50", "setting": "[1]", "result": 10.3, "unit": "nM"}, {"measurement": "IC50", "setting": "[2]", "result": 3.29, "unit": "nM"}]}
{"smiles": "COc1cnccc1-c1nc2c(n1C(C)C)[C@@]1(C(=O)Nc3cc(Cl)ccc31)N(c1cc(Cl)ccc1C)C2=O", "note": "[Example S-10, (S)-6-chloro-5′-(5-chloro-2-methylphenyl)-3′-isopropyl-2′-(3-methoxypyridin-4-yl)-3′H-spiro[dihydroindole-3,4′-pyrrolo[3,4-d]imidazole]-2,6′(5′H)-dione]", "values": [{"measurement": "IC50", "setting": "[1]", "result": 124, "unit": "nM"}, {"measurement": "IC50", "setting": "[2]", "result": 2.77, "unit": "nM"}]}
{"smiles": "COc1cc(C#N)ccc1-c1nc2c(n1C(C)C)[C@@]1(C(=O)Nc3cc(Cl)ccc31)N(c1cc(Cl)ccc1C)C2=O", "note": "[Example S-12, (S)-4-(6-chloro-5′-(5-chloro-2-methylphenyl)-3′-isopropyl-2,6′-dioxo-5′,6′-dihydro-3′H-spiro[dihydroindole-3,4′-pyrrolo[3,4-d]imidazole]-2′-yl)-3-methoxybenzonitrile]", "values": [{"measurement": "IC50", "setting": "[1]", "result": 5.27, "unit": "nM"}, {"measurement": "IC50", "setting": "[2]", "result": 3.55, "unit": "nM"}]}
{"smiles": "COc1ccc(C#N)cc1-c1nc2c(n1C(C)C)[C@@]1(C(=O)Nc3cc(Cl)ccc31)N(c1cc(Cl)ccc1C)C2=O", "note": "[Example S-13, (S)-3-(6-chloro-5′-(5-chloro-2-methylphenyl)-3′-isopropyl-2,6′-dioxo-5′,6′-dihydro-3′H-spiro[dihydroindole-3,4′-pyrrolo[3,4-d]imidazole]-2′-yl)-4-methoxybenzonitrile]", "values": [{"measurement": "IC50", "setting": "[1]", "result": 5.95, "unit": "nM"}, {"measurement": "IC50", "setting": "[2]", "result": 2.55, "unit": "nM"}]}
{"smiles": "CCc1ccc(Cl)cc1N1C(=O)c2nc(-c3cnc(OC)nc3OC)n(C(C)C)c2[C@@]12C(=O)Nc1cc(Cl)ccc12", "note": "[Example S-15, (S)-6-chloro-5′-(5-chloro-2-ethylphenyl)-2′-(2,4-dimethoxypyrimidin-5-yl)-3′-isopropyl-3′H-spiro[dihydroindole-3,4′-pyrrolo[3,4-d]imidazole]-2,6′(5′H)-dione]", "values": [{"measurement": "IC50", "setting": "[1]", "result": 10.9, "unit": "nM"}, {"measurement": "IC50", "setting": "[2]", "result": 1.62, "unit": "nM"}]}
{"smiles": "COc1ncc(-c2nc3c(n2C(C)C)[C@@]2(C(=O)Nc4cc(Cl)ccc42)N(c2cc(Cl)cn(C)c2=O)C3=O)c(OC)n1", "note": "[Example S-16, (S)-6-chloro-5′-(5-chloro-1-methyl-2-oxo-1,2-dihydropyridin-3-yl)-2′-(2,4-dimethoxypyrimidin-5-yl)-3′-isopropyl-3′H-spiro[dihydroindole-3,4′-pyrrolo[3,4-d]imidazole]-2,6′(5′H)-dione]", "values": [{"measurement": "IC50", "setting": "[1]", "result": 3560, "unit": "nM"}, {"measurement": "IC50", "setting": "[2]", "result": 3.39, "unit": "nM"}]}
{"smiles": "COc1ncc(-c2nc3c(n2C(C)C)[C@@]2(C(=O)Nc4cc(Cl)ccc42)N(c2cc(Cl)ccc2OC)C3=O)c(OC)n1", "note": "[Example S-17, (S)-6-chloro-5′-(5-chloro-2-methoxyphenyl)-2′-(2,4-dimethoxypyrimidin-5-yl)-3′-isopropyl-3′H-spiro[dihydroindole-3,4′-pyrrolo[3,4-d]imidazole]-2,6′(5′H)-dione]", "values": [{"measurement": "IC50", "setting": "[1]", "result": 201, "unit": "nM"}, {"measurement": "IC50", "setting": "[2]", "result": 3.75, "unit": "nM"}]}
{"smiles": "COc1ccncc1-c1nc2c(n1C(C)C)[C@@]1(C(=O)Nc3cc(Cl)ccc31)N(c1cc(Cl)ccc1C)C2=O", "note": "[Example S-18, (S)-6-chloro-5′-(5-chloro-2-methylphenyl)-3′-isopropyl-2′-(4-methoxypyridin-3-yl)-3′H-spiro[dihydroindole-3,4′-pyrrolo[3,4-d]imidazole]-2,6′(5′H)-dione]", "values": [{"measurement": "IC50", "setting": "[1]", "result": 13.9, "unit": "nM"}, {"measurement": "IC50", "setting": "[2]", "result": 1.43, "unit": "nM"}]}
{"smiles": "COc1ccc(C(C)C)c(-c2nc3c(n2C(C)C)[C@@]2(C(=O)Nc4cc(Cl)ccc42)N(c2cc(Cl)ccc2C)C3=O)c1", "note": "[Example S-19, (S)-6-chloro-5′-(5-chloro-2-methylphenyl)-3′-isopropyl-2′-(2-isopropyl-5-methoxyphenyl)-3′H-spiro[dihydroindole-3,4′-pyrrolo[3,4-d]imidazole]-2,6′(5′H)-dione]", "values": [{"measurement": "IC50", "setting": "[1]", "result": 352, "unit": "nM"}, {"measurement": "IC50", "setting": "[2]", "result": 34.6, "unit": "nM"}]}
{"smiles": "COc1ncc(-c2nc3c(n2C(C)C)[C@@]2(C(=O)Nc4cc(Cl)ccc42)N(c2ccc(C)c(Cl)c2)C3=O)c(OC)n1", "note": "[Example S-20, (S)-6-chloro-5′-(3-chloro-4-methylphenyl)-2′-(2,4-dimethoxypyrimidin-5-yl)-3′-isopropyl-3′H-spiro[dihydroindole-3,4′-pyrrolo[3,4-d]imidazole]-2,6′(5′H)-dione]", "values": [{"measurement": "IC50", "setting": "[1]", "result": 48.1, "unit": "nM"}, {"measurement": "IC50", "setting": "[2]", "result": 4.39, "unit": "nM"}]}
{"smiles": "CNC(=O)c1ccc(OC)c(-c2nc3c(n2C(C)C)[C@@]2(C(=O)Nc4cc(Cl)ccc42)N(c2cc(Cl)ccc2C)C3=O)c1", "note": "[Example S-21, (S)-3-(6-chloro-5′-(5-chloro-2-methylphenyl)-3′-isopropyl-2,6′-dioxo-5′,6′-dihydro-3′H-spiro[dihydroindole-3,4′-pyrrolo[3,4-d]imidazole]-2′-yl)-4-methoxy-N-methylbenzamide]", "values": [{"measurement": "IC50", "setting": "[1]", "result": 62.2, "unit": "nM"}, {"measurement": "IC50", "setting": "[2]", "result": 1.34, "unit": "nM"}]}
{"smiles": "COc1ccc(C(=O)N(C)C)cc1-c1nc2c(n1C(C)C)[C@@]1(C(=O)Nc3cc(Cl)ccc31)N(c1cc(Cl)ccc1C)C2=O", "note": "[Example S-22, (S)-3-(6-chloro-5′-(5-chloro-2-methylphenyl)-3′-isopropyl-2,6′-dioxo-5′,6′-dihydro-3′H-spiro[dihydroindole-3,4′-pyrrolo[3,4-d]imidazole]-2′-yl)-4-methoxy-N,N-dimethylbenzamide]", "values": [{"measurement": "IC50", "setting": "[1]", "result": 7.46, "unit": "nM"}, {"measurement": "IC50", "setting": "[2]", "result": 1.1, "unit": "nM"}]}
{"smiles": "COc1cc(C)ccc1-c1nc2c(n1C(C)C)[C@@]1(C(=O)Nc3cc(Cl)ccc31)N(c1cc(Cl)ccc1C)C2=O", "note": "[Example S-24, (S)-6-chloro-5′-(5-chloro-2-methylphenyl)-3′-isopropyl-2′-(2-methoxy-4-methylphenyl)-3′H-spiro[dihydroindole-3,4′-pyrrolo[3,4-d]imidazole]-2,6′(5′H)-dione]", "values": [{"measurement": "IC50", "setting": "[1]", "result": 4.17, "unit": "nM"}, {"measurement": "IC50", "setting": "[2]", "result": 4.4, "unit": "nM"}]}
{"smiles": "CNc1ccc(-c2nc3c(n2C(C)C)[C@@]2(C(=O)Nc4cc(Cl)ccc42)N(c2cc(Cl)ccc2C)C3=O)c(OC)c1", "note": "[Example S-25, (S)-6-chloro-5′-(5-chloro-2-methylphenyl)-3′-isopropyl-2′-(2-methoxy-4-(methylamine)phenyl)-3′H-spiro[dihydroindole-3,4′-pyrrolo[3,4-d]imidazole]-2,6′(5′H)-dione]", "values": [{"measurement": "IC50", "setting": "[1]", "result": 8.83, "unit": "nM"}, {"measurement": "IC50", "setting": "[2]", "result": 2.52, "unit": "nM"}]}
{"smiles": "CCn1c(-c2cnc(OC)nc2OC)nc2c1[C@@]1(C(=O)Nc3cc(Cl)ccc31)N(c1cc(Cl)ccc1C)C2=O", "note": "[Example S-26, (S)-6-chloro-5′-(5-chloro-2-methylphenyl)-2′-(2,4-dimethoxypyrimidin-5-yl)-3′-ethyl-3′H-spiro[dihydroindole-3,4′-pyrrolo[3,4-d]imidazole]-2,6′(5′H)-dione]", "values": [{"measurement": "IC50", "setting": "[1]", "result": 22.2, "unit": "nM"}, {"measurement": "IC50", "setting": "[2]", "result": 2.37, "unit": "nM"}]}
{"smiles": "COc1ncncc1-c1nc2c(n1C(C)C)[C@@]1(C(=O)Nc3cc(Cl)ccc31)N(c1cc(Cl)ccc1C)C2=O", "note": "[Example S-27, (S)-6-chloro-5′-(5-chloro-2-methylphenyl)-3′-isopropyl-2′-(4-methoxypyrimidin-5-yl)-3′H-spiro[dihydroindole-3,4′-pyrrolo[3,4-d]imidazole]-2,6′(5′H)-dione]", "values": [{"measurement": "IC50", "setting": "[1]", "result": 119, "unit": "nM"}, {"measurement": "IC50", "setting": "[2]", "result": 3.45, "unit": "nM"}]}
